How the values were obtained:
[1] = system: autologous TILs and patient-derived sarcoma spheroids; experiment: Spheroid infiltration by autologous TILs (real-time imaging and flow cytometry); format: cell-based, human; details: antagonist 12 µM, 3 days
Procedure: Spheroids were prepared using patient-derived sarcoma cell lines. 1×10^4 cells were seeded per well in 96-well ultra-low attachment plate with DMEM-F12 media containing 20% FBS and 1% PS for 5 days. 3×10^4 CSFE-labeled autologous expanded TILs, at Effector:target ratio of 3:1, were added to the spheroid at day five with A2BAR antagonism treatment at 12 µM. After 3 days, spheroid was removed and split into two groups—IN and OUT. […] Spheroids were washed with PBS at least two times. GentleMACS tumor dissociation kit (Miltenyi Biotec) was used to digest the spheroids for FC analysis.
Brightfield and phase contrast images under 4X objective were acquired every 6 hours on IncuCyte S3 system (Essen BioScience). For breast cancer patient-derived spheroid culture, 1×10^4 cells per well were seeded with A2BAR antagonist at 12 µM treatment for 6 days real time imaging. For spheroid infiltration, after the addition of CSFE-labeled autologous expanded TILs and treatment with A2BAR antagonist at 12 µM, green fluorescence images were acquired for 3 days. All spheroid invasion analysis was performed using top hat segmentation with IncuCyte software.
Cell surface was stained with mouse monoclonal antihuman antibodies against CD3, CD4, CD8, CD45RA, CD56 and CD19 listed in online supplemental table 1. Cell surface antibodies and live/dead (L/D) marker were incubated with samples at 4°C for 20 min after washing two times with flow cytometry buffer containing 5% FBS in PBS. For spheroid infiltrated TIL phenotyping, digested IN and OUT spheroids were stained with cell surface marker and analyzed on NovoCyte (ACEA Bioscience) with the use of FlowJo software (Tree Star) by gating single cell based on forward and side scatters. A representative gating strategy for CD8 naïve T cells is shown in online supplemental figure 3A. Compensated flow cytometry standard (FCS) files with only live cells were concatenated for downstream tSNE analysis using the ‘cytofkit’ R package (https://github.com/JinmiaoChenLab/cytofkit).
Figure 6 Infiltration of TILs into autologous patient-derived sarcoma spheroids after A2BAR antagonist treatment. (A) Representative real-time imaging of spheroid TIL infiltration over 3 days under 4× objective. Green areas demarcate CFSE-labeled TILs infiltrated into the red boundary tumor spheroid. (B) Relative TIL infiltration into autologous spheroids (n=8 donors) measured by flow cytometer. Antagonist 12 µM was added with CSFE-labeled TILs after spheroid formation on day five. (C) Representative flow cytometry plot of CFSE positive TILs in CD73+ tumor spheroid. (D) tSNE analysis and (E) annotated pie chart of TILs within (IN) and outside of (OUT) the spheroids without treatment (n=8 donors, indicated within the pie chart). Wilcoxon Rank Sum test was performed to compare the various IN vs OUT adhesion markers. Expression of (F) CD3 T cells, (G) CD49a+ CD103+ among CD8 T cells and (H) CD69 MFI among CD4 T cells IN and OUT of the spheroids without treatment (n=8 donors). (I) Relative CD8/CD4 TIL ratio IN the spheroids. Differential expression of relative (J–L). CD49a+ CD103+ cells IN the spheroids (n=8 donors) of CD3, CD8, and CD4 TILs. Antagonist 12 µM was added for J–L. Outlier is presented as diamond shape and defined by Tukey’s rule, which is not included in statistical analysis. Box plots with minimum, first quartile, median, third quartile, and maximum are presented. Unpaired and non-parametric statistical analysis—Mann-Whitney test was performed against untreated control with *p<0.05, **p<0.01, ***p<0.001, and ****p<0.0001. CFSE, carboxyfluorescein succinimidyl ester; TIL, tumor infiltrating lymphocyte; tSNE, T-distributed stochastic neighboring embedding. TEXT PRINTED IN THE PICTURE: (C) ISAM-R56A: TILs 13.0 DOUBTS OF THE COPYIST ABOUT THIS PICTURE: Panel C, ISAM-R56A, TILs: the print is small, 13.0 could be 13.8 or 13.6 / Panel C also prints a gate label 'TILs 3.17' for the Untreated control. […]

hA2B (A2BAR) = target: T1, hA2B (A2BAR) (Homo sapiens, UniProt P29275); experiment: cAMP assay, NECA-stimulated, HEK-293 cells with transfected A2BAR; format: cell-based; details: n=3, read-out: Kb hA2B (cAMP production)
T1 construct: expressed in transfected cells; host or cells: HEK-293
T1 sequence (P29275 1-332): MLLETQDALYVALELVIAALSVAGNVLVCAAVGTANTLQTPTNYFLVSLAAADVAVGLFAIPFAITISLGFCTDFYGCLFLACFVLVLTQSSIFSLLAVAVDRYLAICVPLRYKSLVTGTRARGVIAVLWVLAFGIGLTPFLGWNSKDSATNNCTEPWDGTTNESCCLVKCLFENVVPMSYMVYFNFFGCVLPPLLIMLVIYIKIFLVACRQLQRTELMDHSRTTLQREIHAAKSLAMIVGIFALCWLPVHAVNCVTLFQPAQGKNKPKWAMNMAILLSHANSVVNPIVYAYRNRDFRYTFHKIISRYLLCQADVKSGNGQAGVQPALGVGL
Procedure: Assays were performed in transfected A2BAR using a cyclic AMP (cAMP) enzyme immunoassay kit (Amersham Biosciences) following previously described protocols.[28 30] HEK-293 cells were seeded (10,000 cells/well) in 96-well culture plates and incubated at 37°C in an atmosphere with 5% CO2 in Eagle’s Medium Nutrient Mixture F-12 (EMEM F-12), containing 10% fetal calf serum (FCS) and 1% L-Glutamine. Cells were washed three times with 200 µL assay medium (EMEM-F12 and 25 mM HEPES pH=7.4) and pre-incubated with assay medium containing 30 µM rolipram and test compounds at 37°C for 15 min. Ten µM NECA was incubated for 15 min at 37°C (total incubation time 30 min). Reaction was stopped with lysis buffer supplied in the kit and the enzyme immunoassay was carried out for detection of intracellular cAMP at 450 nm in an Ultra Evolution detector (Tecan). The dose-response curve of NECA-elicited cAMP formation was used to determine the initial choice of A2BAR antagonist concentration (online supplemental figure 2).

CC1=C(C(=O)OC(C)C)C(c2ccco2)n2c(nc3ccccc32)N1 (stereo not shown) [ISAM-140, isopropyl 4-(furan-2-yl)−2-methyl-1,4-dihydrobenzo[4 5] imidazo[1,2 a]pyrimidine-3-carboxylate]
TIL infiltration into autologous sarcoma spheroids vs untreated (real-time imaging) ([1]; n=8 donors): did not have any effect
Kb (hA2B (A2BAR)): 27 nM

CC1=C(C(=O)OC(C)C)C(c2ccoc2)n2c(nc3cc(Cl)ccc32)N1 (stereo not shown) [ISAM-M89A]
Median increased TIL infiltration vs untreated ([1]; n=8 donors, not statistically significant): 7%

CC1=C(C(=O)OC(C)C)C(c2ccco2)n2c(nc3ccccc32)N1Cc1ccccc1F (stereo not shown) [ISAM-R56A]
TIL infiltration into spheroids by flow cytometry (CSFE positive, CD73 negative TILs) [1]: significantly enhanced TIL infiltration
TIL infiltration into autologous sarcoma spheroids vs untreated (real-time imaging) ([1]; n=8 donors): overall improved TIL infiltration
TIL infiltration into autologous sarcoma spheroids vs untreated (real-time imaging) ([1]; n=8 donors, listed as ISAM–R56A): improved TILs infiltration
Kb (hA2B (A2BAR)): 6.15 nM

Reference: publication PMC9115112, “A2B adenosine receptor antagonists rescue lymphocyte activity in adenosine-producing patient-derived cancer models” (Journal for Immunotherapy of Cancer, 2022)
